Assay results from US20170050961A1, “IMIDAZO[1,2-A]PYRIDINES AS SOLUBLE GUANYLATE CYCLASE STIMULATORS FOR THE TREATMENT OF CARDIOVASCULAR DISEASES” (BAYER PHARMA AKTIENGESELLSCHAFT, priority 2014, published 2017).

Biological target: T1, recombinant guanylate cyclase reporter cell line (Rattus norvegicus, UniProt P19686+P20595)
T1 construct: expressed in transfected cells
T1 sequence (P19686 1-690): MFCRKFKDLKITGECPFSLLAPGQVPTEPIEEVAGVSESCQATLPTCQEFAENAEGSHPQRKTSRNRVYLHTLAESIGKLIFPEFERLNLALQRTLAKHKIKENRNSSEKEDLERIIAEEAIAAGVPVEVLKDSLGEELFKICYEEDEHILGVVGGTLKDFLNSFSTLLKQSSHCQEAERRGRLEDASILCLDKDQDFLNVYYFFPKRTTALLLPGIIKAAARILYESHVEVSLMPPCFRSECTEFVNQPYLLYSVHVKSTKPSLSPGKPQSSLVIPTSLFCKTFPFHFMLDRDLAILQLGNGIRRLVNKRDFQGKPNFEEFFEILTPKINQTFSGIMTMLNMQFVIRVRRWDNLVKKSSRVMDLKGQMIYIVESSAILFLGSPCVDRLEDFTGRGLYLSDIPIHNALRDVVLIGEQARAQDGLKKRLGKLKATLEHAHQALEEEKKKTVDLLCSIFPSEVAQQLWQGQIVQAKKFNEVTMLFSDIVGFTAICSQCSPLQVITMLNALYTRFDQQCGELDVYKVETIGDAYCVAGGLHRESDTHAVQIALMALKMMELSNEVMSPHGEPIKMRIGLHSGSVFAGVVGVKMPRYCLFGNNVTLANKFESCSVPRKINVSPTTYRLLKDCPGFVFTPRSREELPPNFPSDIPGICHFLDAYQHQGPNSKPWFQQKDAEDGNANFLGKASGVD
T1 sequence (P20595 1-619): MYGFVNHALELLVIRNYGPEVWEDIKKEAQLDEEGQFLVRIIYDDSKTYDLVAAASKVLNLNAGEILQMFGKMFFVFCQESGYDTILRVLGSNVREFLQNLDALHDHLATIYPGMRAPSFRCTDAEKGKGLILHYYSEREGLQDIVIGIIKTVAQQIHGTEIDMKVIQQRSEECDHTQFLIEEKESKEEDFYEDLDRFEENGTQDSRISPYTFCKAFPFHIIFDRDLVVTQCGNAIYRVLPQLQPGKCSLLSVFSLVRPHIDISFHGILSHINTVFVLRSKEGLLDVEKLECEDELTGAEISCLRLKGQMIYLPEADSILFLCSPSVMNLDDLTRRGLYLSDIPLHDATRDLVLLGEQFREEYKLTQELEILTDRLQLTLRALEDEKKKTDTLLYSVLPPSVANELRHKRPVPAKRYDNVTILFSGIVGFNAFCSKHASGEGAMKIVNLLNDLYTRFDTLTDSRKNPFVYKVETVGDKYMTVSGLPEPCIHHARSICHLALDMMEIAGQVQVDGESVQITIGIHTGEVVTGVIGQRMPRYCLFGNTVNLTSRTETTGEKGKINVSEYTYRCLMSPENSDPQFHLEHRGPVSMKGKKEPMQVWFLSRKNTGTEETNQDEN
Assay: Effect on a recombinant guanylate cyclase reporter cell line
Type: cell-based
Settings: MEC=minimum effective concentration; in some cases as mean values for individual determinations
Experimental: B-2. Effect on a Recombinant Guanylate Cyclase Reporter Cell Line
The cellular activity of the compounds of the invention is determined using a recombinant guanylate cyclase reporter cell line, as described in F. Wunder et al., Anal Biochem. 339, 104-112 (2005).
Representative MEC values (MEC=minimum effective concentration) for the compounds of the invention are shown in the table below (in some cases as mean values for individual determinations): […]

MEC | SMILES
0.1 µM | CCC(C)(N)CNC(=O)c1c(Cl)nc2c(OCc3c(F)cccc3F)cc(C)cn12 (single isomer, unassigned; enantiomer b) [Example 22, ent-N-(2-Amino-2-methylbutyl)-2-chloro-8-[(2,6-difluorobenzyl)oxy]-6-methylimidazo[1,2-a]pyridine-3-carboxamide (enantiomer B)]
0.55 µM | CCCC[C@H](CO)NC(=O)c1c(OC)nc2c(OCc3c(F)cccc3F)cc(C)cn12 [Example 29, 8-[(2,6-Difluorobenzyl)oxy]-N-[(2R)-1-hydroxyhexan-2-yl]-2-methoxy-6-methylmidazo[1,2-a]pyridine-3-carboxamide]
3.0 µM | COc1nc2c(OCc3c(F)cccc3F)cc(C)cn2c1C(=O)NCC(C)(N)CCC(F)(F)F (single isomer, unassigned; enantiomer b) [Example 27, ent-N-(2-Amino-5,5,5-trifluoro-2-methylpentyl)-8-[(2,6-difluorobenzyl)oxy]-2-methoxy-6-methylimidazo[1,2-a]pyridine-3-carboxamide (enantiomer B)]
0.1 µM | CCCC(C)(N)CNC(=O)c1c(Cl)nc2c(OCc3c(F)cccc3F)cc(C)cn12 (single isomer, unassigned; enantiomer a) [Example 24, ent-N-(2-Amino-2-methylpentyl)-2-chloro-8-[(2,6-difluorobenzyl)oxy]-6-methylimidazo[1,2-a]pyridine-3-carboxamide (enantiomer A)]
10 µM | CCC(C)(N)CNC(=O)c1c(C)nc2c(OCc3c(F)cccc3F)cc(-c3cnn(C)c3)cn12 (racemic) [Example 6, rac-N-(2-Amino-2-methylbutyl)-8-[(2,6-difluorobenzyl)oxy]-2-methyl-6-(1-methyl-1H-pyrazol-4-yl)imidazo[1,2-a]pyridine-3-carboxamide]
2.0 µM | CCC(C)(N)CNC(=O)c1c(OC)nc2c(OCc3c(F)cccc3F)cc(C)cn12 (single isomer, unassigned; enantiomer b) [Example 26, ent-N-(2-Amino-2-methylbutyl)-8-[(2,6-difluorobenzyl)oxy]-2-methoxy-6-methylimidazo[1,2-a]pyridine-3-carboxamide (enantiomer B)]
3.0 µM | Cc1cc(OCc2c(F)cccc2F)c2nc(C3CC(F)(F)C3)c(C(=O)NCC(C)(N)CCC(F)(F)F)n2c1 (single isomer, unassigned; enantiomer b) [Example 17, ent-N-(2-Amino-5,5,5-trifluoro-2-methylpentyl)-8-[(2,6-difluorobenzyl)oxy]-2-(3,3-difluorocyclobutyl)-6-methylimidazo[1,2-a]pyridine-3-carboxamide (enantiomer B)]
0.03 µM | CCC(C)(N)CNC(=O)c1c(Cl)nc2c(OCc3c(F)cccc3F)cc(C)cn12 (single isomer, unassigned; enantiomer a) [Example 21, ent-N-(2-Amino-2-methylbutyl)-2-chloro-8-[(2,6-difluorobenzyl)oxy]-6-methylimidazo[1,2-a]pyridine-3-carboxamide (enantiomer A)]

Continued, compound first:

SMILES | MEC
CCC(C)(N)CNC(=O)c1c(C)nc2c(OCc3c(F)cccc3F)cc(-c3cnco3)cn12 (racemic) [Example 7, rac-N-(2-Amino-2-methylbutyl)-8-[(2,6-difluorobenzyl)oxy]-2-methyl-6-(1,3-oxazol-5-yl)imidazo[1,2-a]pyridine-3-carboxamide] | 1.0 µM
CCC(C)(N)CNC(=O)c1c(C)nc2c(OCc3c(F)cccc3F)cc(C3CC3)cn12.Cl (racemic) [Example 2, rac-N-(2-Amino-2-methylbutyl)-6-cyclopropyl-8-[(2,6-difluorobenzyl)oxy]-2-methylimidazo[1,2-a]pyridine-3-carboxamide hydrochloride] | 1.0 µM
CCC(C)(N)CNC(=O)c1c(C)nc2c(OCc3c(F)cccc3F)cc(-c3cccnc3)cn12 (racemic) [Example 1, rac-N-(2-Amino-2-methylbutyl)-8-[(2,6-difluorobenzyl)oxy]-2-methyl-6-(pyridin-3-yl)imidazo[1,2-a]pyridine-3-carboxamide] | 10 µM
Cc1cc(OCc2c(F)cccc2F)c2nc(C)c(C(=O)NCC(C)(N)CCC[Si](C)(C)C)n2c1 (single isomer, unassigned; enantiomer b) [Example 16, ent-N-[2-Amino-2-methyl-5-(trimethylsilyl)pentyl]-8-[(2,6-difluorobenzyl)oxy]-2,6-dimethylimidazo[1,2-a]pyridine-3-carboxamide (enantiomer B)] | 1.0 µM
Cc1cc(OCc2c(F)cccc2F)c2nc(Cl)c(C(=O)NCC(C)(N)CCC(F)(F)F)n2c1 (single isomer, unassigned; enantiomer b) [Example 19, ent-N-(2-Amino-5,5,5-trifluoro-2-methylpentyl)-2-chloro-8-[(2,6-difluorobenzyl)oxy]-6-methylimidazo[1,2-a]pyridine-3-carboxamide (enantiomer B)] | 0.07 µM
Cc1nc2c(OCc3ncccc3F)cc(Cl)cn2c1C(=O)NCC(C)(N)CCC(F)(F)F (single isomer, unassigned; enantiomer b) [Example 10, ent-N-(2-Amino-5,5,5-trifluoro-2-methylpentyl)-6-chloro-8-[(3-fluoropyridin-2-yl)methoxy]-2-methylimidazo[1,2-a]pyridine-3-carboxamide (enantiomer B)] | 0.3 µM
CCC(C)(N)CNC(=O)c1c(C)nc2c(OCc3c(F)cccc3F)cc(OC(F)F)cn12 (racemic) [Example 5, rac-N-(2-Amino-2-methylbutyl)-8-[(2,6-difluorobenzyl)oxy]-6-(difluoromethoxy)-2-methylimidazo[1,2-a]pyridine-3-carboxamide] | 3.0 µM
Cc1cc(OCc2c(F)cccc2F)c2nc(Cl)c(C(=O)NC(CCC(F)(F)C(F)(F)F)C(C)(C)O)n2c1 (single isomer, unassigned; ent-2) [Example 28, ent-2-Chloro-8-[(2,6-difluorobenzyl)oxy]-6-methyl-N-(6,6,7,7,7-pentafluoro-2-hydroxy-2-methylheptan-3-yl)imidazo[1,2-a]pyridine-3-carboxamide (enantiomer A)] | 0.03 µM
Cc1cc(OCc2c(F)cccc2F)c2nc(C)c(C(=O)NCC(C)(N)CC[Si](C)(C)C)n2c1 (single isomer, unassigned; enantiomer a) [Example 13, ent-N-[2-Amino-2-methyl-4-(trimethylsilyl)butyl]-8-[(2,6-difluorobenzyl)oxy]-2,6-dimethylimidazo[1,2-a]pyridine-3-carboxamide (enantiomer A)] | 0.3 µM
Cc1nc2c(OCc3ncccc3F)cccn2c1C(=O)NCC(C)(N)CCC(F)(F)F (single isomer, unassigned; enantiomer b) [Example 11, ent-N-(2-Amino-5,5,5-trifluoro-2-methylpentyl)-8-[(3-fluoropyridin-2-yl)methoxy]-2-methylimidazo[1,2-a]pyridine-3-carboxamide (enantiomer B)] | 1.0 µM
CCC(C)(N)CNC(=O)c1c(C)nc2c(OCc3c(F)cccc3F)cc(COC)cn12.Cl (racemic) [Example 4, rac-N-(2-Amino-2-methylbutyl)-8-[(2,6-difluorobenzyl)oxy]-6-(methoxymethyl)-2-methylimidazo[1,2-a]pyridine-3-carboxamide hydrochloride] | 3.0 µM
